Data on 13 molecules can be found in ChEMBL document CHEMBL1128637, “Enantioselective synthesis of inositols as intermediates for the preparation of deoxy-inositol phosphates from D-galactose” (Bioorg Med Chem Lett, 1995).

Molecules are shown by their SMILES.

For the first experiment, the target named is T1, Type 1 InsP3 receptor isoform S2 (Sus scrofa, UniProt P79248). The experiment in a line: Binding affinity of compound was determined by its ability to displace specifically bound […] from purified porcine cerebellum membrane. It is filed as tissue-based.
T1 sequence (P79248 whole entry, canonical isoform): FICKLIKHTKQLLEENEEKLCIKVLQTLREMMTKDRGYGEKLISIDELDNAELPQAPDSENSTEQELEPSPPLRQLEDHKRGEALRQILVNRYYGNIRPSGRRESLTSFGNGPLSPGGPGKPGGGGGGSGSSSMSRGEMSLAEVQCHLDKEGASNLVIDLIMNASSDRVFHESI
The IC50 is the midpoint of a concentration-inhibition curve. Low values mean higher potency, high ones lower potency. As for `O=P(O)(O)OC1CC(OP(=O)(O)O)C(OP(=O)(O)O)C(O)C1O` (stereo not drawn), the IC50 was found to be 1500 nM.

On to `O=P(O)(O)O[C@@H]1[C@H](O)[C@H](O)[C@@H](OP(=O)(O)O)[C@H](OP(=O)(O)O)[C@H]1O` [INS(1,4,5)P3], for which the IC50 is 20 nM.

For a further experiment, the target named is T1, Type 1 InsP3 receptor isoform S2. Kind of experiment: Binding affinity was determined by its ability to displace specifically bound […] from purified porcine cerebellum membrane. In kind it is tissue-based.
In the case of `O=P(OCc1ccccc1)(OCc1ccccc1)OC1CC(OP(=O)(OCc2ccccc2)OCc2ccccc2)C2OC3(CCCCC3)OC2C1OCc1ccccc1` (stereo not drawn), the IC50 entry was “Not Active”. `OC1CC(O)C2OC3(CCCCC3)OC2C1O` (stereo not drawn): the concentration for half-maximal inhibition (IC50) entry is “Not Active”.

On to `CO[C@@H]1O[C@@H](CO)[C@@H]2OC3(CCCCC3)O[C@@H]2[C@@H]1O`, for which the concentration for half-maximal inhibition (IC50) entry was “Not Active”. Still for that read-out and setting: then `O[C@H]1[C@@H](O)[C@H](O)C[C@@H](O)[C@H]1O`, with “Not Active”; and `C=C1OC(OC)C(OCc2ccccc2)C2OC3(CCCCC3)OC12` (stereo not drawn), with “Not Active”; and `OC1CC(O)C2OC3(CCCCC3)OC2C1OCc1ccccc1` (stereo not drawn), with “Not Active”. Still for that read-out and setting: then `COC1OC(CBr)C2OC3(CCCCC3)OC2C1O` (stereo not drawn), with “Not Active”; and `COC1OC(CBr)C2OC3(CCCCC3)OC2C1OCc1ccccc1` (stereo not drawn), with “Not Active”. With `O=C1CC(O)C(OCc2ccccc2)C2OC3(CCCCC3)OC12` (stereo not drawn), the IC50 entry is given as “Not Active”. `O=P(OCc1ccccc1)(OCc1ccccc1)OC1CC(OP(=O)(OCc2ccccc2)OCc2ccccc2)C(OP(=O)(OCc2ccccc2)OCc2ccccc2)C2OC3(CCCCC3)OC12` (stereo not drawn): the IC50 result is “Not Active”. Take `CO[C@@H]1O[C@H](CO)[C@H](O)[C@H](O)[C@H]1O`: the IC50 result was “Not Active”.
